We go through twelve compounds from ChEMBL document CHEMBL1201862, “PubChem BioAssay data set” (2004).

What all share (experiment): NCI anticancer screen, dose series, 48 h
The test system of assay [1] is HL-60.
Assay [2] has as its system HCT-15.
Assay [3] relates to SNB-19.
The subject of assay [4] is 786-0.
The test system of assay [5] is SR.
For assay [6], the system named is NCI-H460.
In assay [7] the test system is RPMI-8226.
Assay [8] relates to RXF 393.
Assay [9] concerns U-251.
Assay [10] deals with NCI-H522.
For assay [11], the system named is SNB-75.
Assay [12] deals with MCF7.
Assay [13] concerns SF-539.
Assay [14] has as its system CCRF-CEM.
Assay [15] concerns MDA-N.
Assay [16] deals with UO-31.
The test system of assay [17] is Malme-3M.
In assay [18] the test system is SK-MEL-5.
The subject of assay [19] is BT-549.

Structures are written as SMILES.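 Test compounds were applied to cells in 96-well plates for 48 hours at 5 doses. GI50: concentration for 50% inhibition of growth.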 Calls of active or inactive are those of the source. Cut-off read from the data, not from the text of the source: active = GI50 up to about 1.1 µM and inactive = higher.

For the compound `COc1ccc(C[C@H]2NC(=O)/C=C/C[C@@H]([C@H](C)[C@H]3O[C@@H]3c3ccccc3)OC(=O)[C@H](CC(C)C)OC(=O)[C@H](C)CNC2=O)cc1`, the GI50 in assay [1] was 1.55e-05 µM (active); in [2], 4.28e-05 µM; in assay [3], 2.47e-05 µM (active); in assay [4] it was 1.25e-05 µM (active); in assay [5], 3.36e-06 µM (active); in assay [6] it was 3.13e-05 µM (active). The GI50 was 2.85e-05 µM (active) in assay [7]; 9.27e-06 µM (active) in assay [8]; 2.86e-05 µM (active) in assay [9]; 1.05e-05 µM (active) in assay [10]; 1.47e-05 µM (active) in assay [11]; > 8.95e-05 µM (active) in [12]. The GI50 in assay [13] was 1.94e-05 µM (active); in assay [14], 1.75e-05 µM (active); in assay [15], 5.31e-06 µM (active); in [16], 4.71e-05 µM (active); in assay [17], 2.19e-05 µM (active); in assay [18] it was 7.53e-06 µM (active).
In the case of `c1cc(-c2ccc(-c3ccsc3)s2)cs1`, the GI50 in assay [1] was 19.2 µM (inactive); in assay [2], greater than 100 µM; in assay [4] it was 36.1 µM (inactive); in [5] it was 28.2 µM (inactive); in [6], > 100 µM (inactive); in [7], > 100 µM (inactive). The GI50 in assay [8] is 73.1 µM (inactive); in assay [9], 19.5 µM (inactive); in assay [10], > 100 µM (inactive); in [11] it was 23.9 µM (inactive); in [12], 50.5 µM (inactive); in assay [13] it was 36.4 µM (inactive). The GI50 in [14] is 12.9 µM (inactive); in [15], > 100 µM (inactive); in [16], 28.1 µM (inactive); in assay [18], > 100 µM (inactive).
For `O=C1CSC2=NC3=C(CSC/C3=C\c3ccccc3)C(c3ccccc3)N12` (centres undefined), the GI50 is 32.2 µM (inactive) in assay [1]; greater than 100 µM in assay [2]; > 100 µM (inactive) in assay [4]; 65.3 µM (inactive) in assay [5]; 81.3 µM (inactive) in assay [6]; 31.1 µM (inactive) in assay [7]. Besides, the GI50 was 39.8 µM (inactive) in [9]; 29.6 µM (inactive) in assay [11]; 33.3 µM (inactive) in [12]; > 100 µM (inactive) in assay [13]; 33.8 µM (inactive) in assay [14]; 32.6 µM (inactive) in assay [15]. For the same compound, the results for the GI50 in [16], in [17] and in [18] were 24.9 µM (inactive), > 100 µM (inactive) and 52.1 µM (inactive), respectively.
On to `COc1ccc(C2ON(c3ccccc3)CC=C2C)cc1` (centres undefined), for which the GI50 is 34.6 µM (inactive) in assay [1]; 65.9 µM in assay [2]; > 100 µM (inactive) in [3]; > 100 µM (inactive) in assay [4]; 37.2 µM (inactive) in [5]; > 100 µM (inactive) in assay [6]. Also, the GI50 is 43.7 µM (inactive) in assay [7]; 34.4 µM (inactive) in assay [8]; 99.8 µM (inactive) in assay [9]; 19.2 µM (inactive) in [10]; 94.8 µM (inactive) in assay [11]; > 100 µM (inactive) in assay [13]. For the same compound, the GI50 in assay [14] was 33.7 µM (inactive); in assay [16], 34 µM (inactive); in assay [17] it was > 100 µM (inactive).
For `CC(O)CNC(=O)Nc1c(C(F)(F)F)cc(-c2ccccc2)[nH]c1=O` (centres undefined), the GI50 is 0.343 µM (active) in assay [1]; greater than 100 µM in [2]; > 100 µM (inactive) in assay [3]; > 100 µM (inactive) in assay [4]; > 100 µM (inactive) in [6]; > 100 µM (inactive) in assay [8]. Further, the GI50 was > 100 µM (inactive) in assay [9]; > 100 µM (inactive) in [10]; > 100 µM (inactive) in [19]; > 100 µM (inactive) in assay [12]; 13.8 µM (inactive) in assay [14]; > 100 µM (inactive) in assay [16]. Also, the GI50 in [17] and in assay [18] was > 100 µM (inactive) throughout.
Regarding `CN(CC(=O)O)S(=O)(=O)c1ccc(F)cc1`, the GI50 is > 100 µM (inactive) in [1]; greater than 100 µM in assay [2]; > 100 µM (inactive) in assay [3]; > 100 µM (inactive) in assay [4]; > 100 µM (inactive) in assay [6]; > 100 µM (inactive) in assay [7]. The GI50 in assay [8], in [9], in assay [10], in assay [11], in assay [13] and in assay [14] was > 100 µM (inactive) throughout. Moreover, the GI50 in [16], in [17] and in assay [18] was > 100 µM (inactive) each time.
On to `C[N+](C)(C)CC(=O)N/N=C(/CC(=O)CC(C1=C(O)c2ccccc2OC1)c1ccccc1)C(=O)Nc1cccc(Cl)c1` (centres undefined), for which the GI50 in assay [1] was > 100 µM (inactive); in [2] it was greater than 100 µM; in assay [4], > 100 µM (inactive); in assay [5] it was > 100 µM (inactive); in assay [6], > 10 µM (inactive); in [7], > 100 µM (inactive). In addition, the GI50 in [8], in assay [9], in assay [10], in assay [19], in [11] and in assay [12] was > 100 µM (inactive) in each case. Also, the GI50 in assay [13], in assay [14], in [16] and in [18] was > 100 µM (inactive) in each case.
`COc1cc2c[n+]3ccc4cc(OC)c(OC)cc4c3cc2cc1O`: the GI50 is > 100 µM (inactive) in assay [1]; greater than 100 µM in [2]; > 100 µM (inactive) in assay [3]; > 100 µM (inactive) in [4]; > 100 µM (inactive) in assay [5]; > 100 µM (inactive) in assay [6]. Also, the GI50 in [7], in assay [8], in [9], in [10], in [11] and in [13] was > 100 µM (inactive) in each case. For the same compound, the GI50 in assay [14], in [16], in [17] and in assay [18] was > 100 µM (inactive) each time.
As for `O=C1OC(c2ccccc2)C2CC3CC4(CCC3CN12)OCCO4` (centres undefined), the GI50 is 67.8 µM (inactive) in [1]; greater than 100 µM in assay [2]; > 100 µM (inactive) in assay [3]; > 100 µM (inactive) in [4]; > 100 µM (inactive) in assay [5]; > 100 µM (inactive) in assay [6]. The GI50 was 94 µM (inactive) in assay [7]; > 100 µM (inactive) in [8]; > 100 µM (inactive) in assay [9]; 0.142 µM (active) in assay [10]; 52 µM (inactive) in [11]; > 100 µM (inactive) in assay [13]. Besides, the GI50 was > 100 µM (inactive) in assay [14], > 100 µM (inactive) in assay [16] and 17.9 µM (inactive) in assay [18].
As for `COc1ccc(/N=N/c2c(-c3c(OC)cc4occc4c3OC)[nH]c(=O)c(C#N)c2C)cc1`, the GI50 is > 100 µM (inactive) in [1]; greater than 100 µM in [2]; > 100 µM (inactive) in assay [3]; > 100 µM (inactive) in assay [4]; > 100 µM (inactive) in assay [5]; > 100 µM (inactive) in [6]. For the same compound, the GI50 in assay [7] is > 100 µM (inactive); in assay [8], > 100 µM (inactive); in assay [9] it was > 100 µM (inactive); in [10], > 100 µM (inactive); in assay [11], 53.2 µM (inactive); in [12] it was > 100 µM (inactive). The GI50 in [13] is > 100 µM (inactive); in [14], > 100 µM (inactive); in [15] it was > 100 µM (inactive); in [16] it was > 100 µM (inactive); in [17], 55 µM (inactive); in assay [18] it was > 100 µM (inactive).
As for `O=[N+]([O-])/C(C(Cl)=C(Cl)Cl)=C(/Cl)SCc1ccccc1`, the GI50 is 0.229 µM (active) in assay [1]; 5 µM in assay [2]; 22.5 µM (inactive) in assay [3]; 1.65 µM (inactive) in [4]; 1.43 µM (inactive) in [5]; 16.3 µM (inactive) in [6]. In addition, the GI50 was 0.889 µM (active) in assay [7]; 3.01 µM (inactive) in [8]; 8.04 µM (inactive) in [9]; 2.78 µM (inactive) in assay [10]; 1.02 µM (active) in [11]; 0.495 µM (active) in [12]. Further, the GI50 is 6.62 µM (inactive) in assay [13]; 0.202 µM (active) in assay [14]; 1.84 µM (inactive) in assay [15]; 2.22 µM (inactive) in assay [16]; 2.47 µM (inactive) in assay [17]; 8.43 µM (inactive) in [18].
Take `COc1ccc2oc(-c3cc4cc(OC)ccc4o3)cc2c1`: the GI50 in [1] was > 100 µM (inactive); in [2], greater than 100 µM; in assay [3] it was > 100 µM (inactive); in assay [4], > 100 µM (inactive); in assay [6], > 100 µM (inactive); in assay [7] it was > 100 µM (inactive). The GI50 in assay [8], in assay [10], in assay [11], in assay [14], in assay [16] and in assay [17] was > 100 µM (inactive) throughout. Also, the GI50 in assay [18] was > 100 µM (inactive).
